According to patent US20250204541A1, “GAS PHASE TREATMENT OF PRODUCE” (priority 2022, published 2025):

How the values were obtained:
Assay type in all cases: in vivo
mold = assay: Mold growth on produce exposed to AITC in an airtight bin (general description); details: for effect on mold growth on the produce: AITC concentration of 1000 ppm, airtight bin
Protocol: The plurality of produce items is contacted with the antimicrobial agent for a length of time in a range of 1 minute to 100 hours (e.g., 10 minutes to 1 hour). The length of time is dependent on a variety of factors, such as type of produce, target pathogen, and the degree to which the enclosure is sealed. Examples include exposure times between 15 minutes and 96 hours for allyl isothiocyanate (AITC) in an airtight bin. […] Lower antimicrobial agent concentrations with longer exposure times or higher antimicrobial concentrations with shorter exposure times can also be used. For example, the plurality of produce items is contacted with the antimicrobial agent for a length of time in a range of 15 minute to 72 hours.
A concentration of the antimicrobial agent in the headspace of the enclosure is typically in a range of about 20 parts per million by volume (ppmv) to about 5000 ppmv (e.g., about 550 ppmv to about 4800 ppmv, or about 25 ppmv to about 1250 ppmv). Depending on type of produce and exposure time in the enclosure, antimicrobial agent concentrations greater than about 2200 ppmv can sometimes damage the produce. […] In some embodiments, the antimicrobial agent is provided in a concentration to the enclosure in a headspace at least about 1200 ppmv, at least about 1250 ppmv, or about 1250 ppmv to about 5000 ppmv, or about 1250 ppmv to about 4900 ppmv.

[1] = system: Penicillium italicum (Pi); assay: Antifungal activity of vapor against Penicillium italicum in wounded, infected mandarins; details: 72 hours vapor of 3 mL in a Petri dish
Protocol: Example 2. The antifungal activity of allyl isothiocyanate (AITC) and DADS vapor was tested against Pd and Penicillium italicum (Pi) in mandarins. All samples were wounded by puncturing with a screw. Mandarins were infected by dispensing either 1000 Pd spores or 1000 Pi spores suspended in 10 μL into the wound. The test groups consisted of mandarins that were: uninfected and untreated; uninfected and treated by dipping in a solution of 1 g/L of imazalil; infected with Pd and untreated; infected with Pd and exposed to AITC; infected with Pd and exposed to DADS; infected with Pi and untreated; infected with Pi and exposed to AITC; and infected with Pi and exposed to DADS. Exposure to AITC or DADS consisted of exposing the mandarins for 72 hours to the vapor of 3 mL of the respective compound dispensed in a Petri dish. […] DADS vapor reduced the incidence of Pd mold by 85% and Pi mold by 30% compared to the respective untreated/infected test groups. […] Both AITC and DADS were effective at preventing fungal growth. The inhibition from AITC was approximately 100%, with some changes in visible appearance.

avocados = assay: Durometer shore (ripening/firmness) of treated avocados; details: for average increase of durometer shore over the uninfected and untreated avocados: Example 22
Protocol: Example 9. The antifungal activity of a range of AITC and carvacrol vapor exposure times was tested against Cg in avocados. To measure the effect of the various treatments on ripening, durometer shore was taken after 7 days of incubation at ambient temperature and high humidity. All samples were wounded by removing the stem and infected by dispensing 1000 Cg spores suspended in 10 μL of water in the wound. The test groups consisted of avocados that were: infected and left untreated on the benchtop; infected and left untreated under a fume hood; exposed to the vapor of 3 mL of AITC in a Petri dish for 24 hours, 48 hours, and 72 hours; and exposed to the vapor of 3 mL of carvacrol in a Petri dish for 72 hours. FIG. 11 quantifies the infection results. […] All exposure times to AITC vapor reduced the incidence of Cg mold compared to the untreated samples. A 24 hour AITC exposure reduced the incidence of Cg mold by 90%. A 48 hour AITC exposure reduced the incidence of Cg mold by 97%. A 72 hour AITC exposure reduced the incidence of Cg mold by 83%.
Example 10. The antifungal activity of a range of AITC vapor exposure times were tested against Cg in avocados. To measure the effect of the various treatments on ripening, durometer shore was taken after 6 days of incubation at ambient temperature and high humidity. All samples were wounded by removing the stem and infected by dispensing 1000 Cg spores suspended in 10 μL of water in each wound. The test groups consisted of avocados that were: infected and left untreated on the benchtop; infected and left untreated in a fume hood; exposed to the vapor of 3 mL of AITC in a Petri dish for 24 hours, 48 hours, and 72 hours. FIG. 13 quantifies the infection results. […] All exposure times to AITC vapor reduced the incidence of Cg mold compared to the untreated samples.
Example 21. The antifungal activity of avocados exposed to AITC vapor and prochloraz was tested against Cg in avocados. To measure the effect of the various treatments on ripening, durometer shore was taken after 5 days of incubation at ambient temperature (about 20° C. to about 25° C.) and high humidity (about 88% relative humidity to about 93% relative humidity). All samples were wounded by removing the stem and infected by dispensing 1000 Cg spores suspended in 10 μL of water in the wound. Exposure to vapor was done by placing the avocados in an airtight container, dispensing AITC onto Whatman filter paper discs, suspending the discs in front of a battery-powered fan, closing the container and incubating the avocados for 30 minutes. After vapor exposure, the avocados were left at ambient temperature, high humidity, and assessed for Cg mold on day 5. Treatment groups consisted of avocados that were: exposed for 30 minutes to the vapor of 125 μL of AITC disposed on a filter paper disc; dipped in a solution of 0.1 g/L of prochloraz and placed to dry on a rack in front of a fan for 30 min; infected and left untreated; and uninfected and untreated. […] To prepare the 0.1 g/L of prochloraz, 10 mg of prochloraz was mixed with 10 mL of ethanol and 90 mL of water. […] A 24 hour AITC exposure reduced the incidence of Cg mold by 90%. […] The mean shore value for the untreated avocados was 28.8 (standard deviation (SD)=10.8). The mean shore value for the infected avocados was 47.3 (SD=11.8). The mean shore value of the positive control, prochloraz treated avocados was 44.3 (SD=14.7). The mean shore value of the AITC treated avocados was 61.1 (SD=10.5).
Durometer Shore Measurement: A Fruit Hardness Tester—HPE III Fff w/Sphere Ø 5.0 mm Test Anvil is used for the measurements. The Operating Procedure is as follows: • 1) At room temperature and 1 atm pressure, switch on the measuring device and press the hull or sleeve against the specimen so that the contact surface of the pressure plate rests on the fruit. […]

Structure (SMILES) | effect on mold growth on the produce (mold; exposure time of 15 minutes) | effect on mold growth on the produce (mold; exposure time of 30 min or longer) | effect on mold growth (mold; AITC concentrations in a range of 550 ppmv to 4800 ppmv) | effect on mold growth (mold; AITC concentrations over 1000 ppmv) | inhibition of fungal growth ([1]; mandarins infected with Pi) | effect on Pi infection ([1]; mandarins) | average increase of durometer shore over the untreated avocados (avocados; Example 9, Cg-infected avocados, all AITC treatments (3 mL, 24, 48, 72 hours), after 7 days, P value<0.0001) | average increase of durometer shore over the infected avocados (avocados; Example 10, Cg-infected avocados, all AITC treatments (3 mL, 24, 48, 72 hours), after 6 days, P value<0.005) | higher durometer shore than the untreated avocados (avocados; Example 21, Cg-infected avocados, 125 μL, 30 minutes, after 5 days) | mean shore value (avocados; Example 21, Cg-infected avocados, after 5 days, AITC 125 μL vapor 30 minutes, prochloraz 0.1 g/L dip) | average increase of durometer shore over the uninfected and untreated avocados (avocados; Cg-infected avocados, 250 μL, 30 minutes, after 5 days, P value=0.0016) | average increase of durometer shore over the uninfected and untreated avocados (avocados; Cg-infected avocados, 500 μL, 30 minutes, after 5 days, P value<0.0001) | average increase of durometer shore over the untreated avocados (avocados; Example 23, avocados, after 11 days, coating agent 40 g/L dip, AITC vapor of 500 μL, P value<0.0001) | reduction of the incidence of Pi mold compared to the untreated/infected test group ([1]; mandarins)
C=CCN=C=S [AITC, allyl isothiocyanate] | slowed mold growth on the produce | showed good efficacy | some inhibitory effect on mold growth | tended to be completely inhibitory | approximately 100% | substantially prevented | 20.3 shore | 15.4 shore | more than 30 shore | 61.1 (SD=10.5) shore | about 10 shore | about 28.5 shore | 22.5 shore | 
C=CCSSCC=C [DADS, diallyl disulfide] |  |  |  |  |  |  |  |  |  |  |  |  |  | 30%
